Test results from PubChem BioAssay (NCI).
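Results reflect a 48-hour exposure of cells in 96-well plates to compound at five concentrations. Here, GI50 denotes the concentration required for 50% inhibition of growth. The concentration for full growth arrest is given as TGI.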 Where a SMILES comes first, the peptide text is derived from it. The star is where a group is joined. Boc = CC(C)(C)OC(=O)*; tBu = CC(C)(C)*

Key:
Test in all cases: inhibition of tumour cell growth, NCI panel, 48 h
MALME-3M melanoma = test system: MALME-3M melanoma
RPMI-8226 leukemia = test system: RPMI-8226 leukemia
SK-MEL-5 melanoma = test system: SK-MEL-5 melanoma
NCI-H226 lung = test system: NCI-H226 lung
HL-60(TB) leukemia = test system: HL-60(TB) leukemia
ACHN renal = test system: ACHN renal
A549 NSCLC = test system: A549 NSCLC
T-47D breast = test system: T-47D breast
SF-268 CNS = test system: SF-268 CNS
SR leukemia = test system: SR leukemia

Structure (SMILES) | TGI (MALME-3M melanoma) | TGI (RPMI-8226 leukemia) | TGI (SK-MEL-5 melanoma) | TGI (NCI-H226 lung) | TGI (HL-60(TB) leukemia) | TGI (ACHN renal) | TGI (A549 NSCLC) | TGI (T-47D breast) | TGI (SF-268 CNS) | TGI (SR leukemia) | GI50 (MALME-3M melanoma) | GI50 (RPMI-8226 leukemia) | GI50 (SK-MEL-5 melanoma) | GI50 (NCI-H226 lung) | GI50 (HL-60(TB) leukemia) | GI50 (ACHN renal) | GI50 (A549 NSCLC) | GI50 (T-47D breast) | GI50 (SF-268 CNS) | GI50 (SR leukemia)
Cc1cc(NS(=O)(=O)c2ccc(NC(=O)c3ccc4nc5ccccc5c(Nc5ccc(S(=O)(=O)Nc6cc(C)on6)cc5)c4c3)cc2)no1 | > 50 µM | > 50 µM | > 50 µM | > 50 µM | > 50 µM | > 50 µM | > 50 µM | > 50 µM | > 50 µM | > 50 µM |  |  |  |  |  |  |  |  |  | 
CC(OC(C)(C)C)C(NC(=O)C(N)CCCCNC(=O)OC(C)(C)C)C(=O)NC(Cc1ccccc1)C(=O)O (stereo not given) (H-Lys(Boc)-Thr(tBu)-Phe-OH; configuration not given here) | > 100 µM | > 100 µM | > 100 µM | > 100 µM | > 100 µM | > 100 µM | > 100 µM | > 100 µM | > 100 µM | > 100 µM |  |  |  |  |  |  |  |  |  | 
O=S(=O)(O)c1ccc2c(N=Nc3c(O)ccc4ccccc34)cccc2c1 | > 100 µM | > 100 µM | > 100 µM | > 100 µM | > 100 µM | > 100 µM | > 100 µM | > 100 µM | > 100 µM | > 100 µM |  |  |  |  |  |  |  |  |  | 
CON(C)C(=O)C(C)NC(=O)OC(C)(C)C (stereo not given) | > 100 µM | > 100 µM | > 100 µM | > 100 µM | > 100 µM | > 100 µM | > 100 µM | > 100 µM | > 100 µM | > 100 µM |  |  |  |  |  |  |  |  |  | 
CCOc1cc(/C=C/C(=O)CC(=O)/C=C/c2ccc(OC(=O)CNCCN(CC)CC)c(OCC)c2)ccc1OC(=O)CNCCN(CC)CC | 4.12 µM | 2.1 µM | 3.17 µM | 5.17 µM | 4.25 µM | 3.54 µM | 15.9 µM | 45.4 µM | 9.64 µM | 1.63 µM | 1.91 µM | 0.45 µM | 1.55 µM | 2.15 µM | 1.16 µM | 1.92 µM | 3.81 µM | 6.41 µM | 1.98 µM | 0.313 µM
O=S(=O)(c1ccc2ccccc2c1)N1CCN(S(=O)(=O)c2ccc3ccccc3c2)CC1 | > 100 µM | > 100 µM | > 100 µM | > 100 µM | > 100 µM | > 100 µM | > 100 µM | > 100 µM | > 100 µM | > 100 µM |  |  |  |  |  |  |  |  |  | 
CC(=O)Nc1sccc1S(=O)(=O)c1ccc(Cl)cc1 | > 100 µM | > 100 µM | > 100 µM | > 100 µM | > 100 µM | > 100 µM | > 100 µM | > 100 µM | > 100 µM | > 100 µM |  |  |  |  |  |  |  |  |  | 
NC(N)=N/N=C\c1c(-c2ccccc2)nc2sccn12 | 30 µM | 49 µM | 29.2 µM | 33.1 µM | 53.3 µM | 30.6 µM | 31.8 µM | 29.1 µM | 29.9 µM | > 100 µM |  |  |  |  |  |  |  |  |  | 
N#Cc1c(N)nc2n[nH]c(N)c2c1-c1ccccc1 | 22 µM | > 53.8 µM | 26.7 µM | > 79 µM | 71.1 µM | 28.9 µM | > 65.5 µM | 3.9 µM | 29.2 µM | > 60.1 µM |  |  |  |  |  |  |  |  |  | 
Nc1nc2c(c(=O)[nH]1)NC(CCNc1ccc(C(=O)O)cc1)CN2 (stereo not given) | > 100 µM | > 100 µM | > 100 µM | > 100 µM | > 100 µM | > 100 µM | > 100 µM | > 100 µM | > 100 µM | > 100 µM |  |  |  |  |  |  |  |  |  | 
O=S(=O)(/N=C(\NO)Nc1ccc(Cl)cc1)c1cc(S(=O)(=O)c2ccccc2)cs1 | 28.5 µM | 44.8 µM | 21.9 µM | 51.6 µM | 7.19 µM | 42.3 µM | 93.1 µM | 44.3 µM | 37 µM | 95.7 µM |  |  |  |  |  |  |  |  |  | 
COc1ccc2c(C(=O)c3c(C)n(CCN4CCOCC4)c4ccccc34)cccc2c1 | 80.7 µM | 83.6 µM | 35.2 µM | > 100 µM | 23.4 µM | > 100 µM | > 100 µM | > 100 µM | 55.4 µM | > 100 µM |  |  |  |  |  |  |  |  |  | 
CC1=C2CC(C)(C)CC(=O)C2(C)CCC1=O (stereo not given) | > 100 µM | 13.8 µM | > 100 µM | > 100 µM | > 100 µM | > 100 µM | > 100 µM | > 100 µM | > 100 µM | > 100 µM |  |  |  |  |  |  |  |  |  | 
CC(C)CCCC(C)[C@H]1CCC2[C@@H]3CCC4Cc5nc6c(nc5C[C@]4(C)C3CC[C@@]21C)CC1CC[C@@H]2C(CC[C@@]3(C)C2CC[C@@H]3O)[C@@]1(C)C6 (stereo not given in full) | > 100 µM | > 100 µM | > 100 µM | > 100 µM | > 100 µM | > 100 µM | > 100 µM | > 100 µM | > 100 µM | > 100 µM |  |  |  |  |  |  |  |  |  | 
COc1cccc(Nc2nc(NS(=O)(=O)c3cc(C)c(Cl)cc3S)n[nH]2)c1 | > 100 µM | > 100 µM | > 100 µM | > 100 µM | > 100 µM | > 100 µM | > 100 µM | > 100 µM | > 100 µM | > 100 µM |  |  |  |  |  |  |  |  |  | 
